Patent publication US8110585B2, “Bicyclic compound and pharmaceutical use thereof” (Takeda Pharmaceutical Company Limited, priority 2007, dated 2012)

Experiments:
[1] = target: T1, human melatonin 1 receptors (human MT1 receptors) (Homo sapiens, UniProt P48039); assay: Melatonin receptor binding inhibitory test, 2-[125I] Iodomelatonin, MT1; details: membrane fraction of CHO-hMelR7 cells, 25° C. for 2.5 hr, read-out: binding inhibitory activity as IC50 value for MT1
T1 construct: expressed in transfected cells; membrane fraction

[2] = target: T2, human melatonin 2 receptors (human MT2 receptors) (Homo sapiens, UniProt P49286); assay: Melatonin receptor binding inhibitory test, 2-[125I] Iodomelatonin, MT2; details: membrane fraction of CHO-hMT2 cells, 25° C. for 2.5 hr, read-out: binding inhibitory activity as IC50 value for MT2
T2 construct: expressed in transfected cells; membrane fraction
T2 sequence (P49286 1-362): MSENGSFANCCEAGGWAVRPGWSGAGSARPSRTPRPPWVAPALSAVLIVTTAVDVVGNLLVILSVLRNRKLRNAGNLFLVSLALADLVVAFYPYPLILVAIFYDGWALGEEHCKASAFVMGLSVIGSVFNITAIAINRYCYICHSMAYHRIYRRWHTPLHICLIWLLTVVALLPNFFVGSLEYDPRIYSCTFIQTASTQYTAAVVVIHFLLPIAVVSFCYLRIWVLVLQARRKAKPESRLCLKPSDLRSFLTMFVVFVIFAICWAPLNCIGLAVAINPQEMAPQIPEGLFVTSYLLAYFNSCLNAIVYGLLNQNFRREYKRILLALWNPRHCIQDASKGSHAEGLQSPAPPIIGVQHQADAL

T1 sequence (P48039 whole entry): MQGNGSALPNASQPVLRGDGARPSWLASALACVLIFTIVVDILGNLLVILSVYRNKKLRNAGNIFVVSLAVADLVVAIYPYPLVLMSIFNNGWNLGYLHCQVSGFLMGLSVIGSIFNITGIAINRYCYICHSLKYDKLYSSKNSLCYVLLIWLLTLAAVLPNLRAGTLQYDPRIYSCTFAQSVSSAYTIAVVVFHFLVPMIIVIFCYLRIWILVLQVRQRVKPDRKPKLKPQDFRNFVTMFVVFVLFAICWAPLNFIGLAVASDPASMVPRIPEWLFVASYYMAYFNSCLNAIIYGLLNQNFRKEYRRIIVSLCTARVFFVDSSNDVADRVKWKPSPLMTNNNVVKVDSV

- IC50 [1]: ≤ 100 nM
- melting point: 84 to 86 °C
- IC50 [2]: ≤ 100 nM
Compound: CCC(=O)NCC1CC1c1cccc2nscc12 (stereo not drawn) [Example 63, N-{[2-(2,1-benzisothiazol-4-yl)cyclopropyl]methyl}propanamide]
